Values quoted from earlier work in PMC6722509, “Design and In Vivo Pharmacokinetic Evaluation of Triamcinolone Acetonide Microcrystals-Loaded PLGA Microsphere for Increased Drug Retention in Knees after Intra-Articular Injection” (Pharmaceutics, 2019).

How the values were obtained:
[1] = 0.25 mg per knee, rats

CC1(C)O[C@@H]2C[C@H]3[C@@H]4CCC5=CC(=O)C=C[C@]5(C)[C@@]4(F)[C@@H](O)C[C@]3(C)[C@]2(C(=O)CO)O1 [TA, triamcinolone acetonide]
Tolerability of IA dose [1]: well tolerated
Solubility in ACN: < 1000 µg/mL
